Where two headings read alike, the source gives them in different places.
Target: T1, USP7 (Homo sapiens, UniProt Q93009)
T1 construct: USP7, construct USP7 (208-1102) 6*His, Viva Biotech; 6xHis (C); purchased Viva Biotech
Assay: USP7 Assay A (Ubitquin-Rhodamine 110 Assay)
Format: biochemical
Details: read-out: USP7_IC50
Procedure: Each assay was performed in a final volume of 15 μL in assay buffer containing 20 mM Tris-HCl (pH 8.0, (1M Tris-HCl, pH 8.0 solution; Corning 46-031-CM)), 1 mM GSH (L-Glutathione reduced; Sigma #G4251), 0.03% BGG ([…], Sigma, #G7516-25G), and 0.01% Triton X-100 (Sigma, #T9284-10L). […] 5 μL of 2× enzyme was added to assay plates (pre-stamped with compound) preincubated with USP7 for 30 minutes and then 5 μL of 2×Ub-Rh110 was added to assay plates. […] Fluorescence was read on the Envision (Excitation at 485 nm and Emission at 535 nm; Perkin Elmer) or on the PheraSTAR (Excitation at 485 nm and Emission at 535 nm; BMG Labtech).
Data from USP7 Assays A and B were reported as percent inhibition (inh) compared with control wells based on the following equation: % inh=1−((FLU−AveLow)/(AveHigh−AveLow)) where FLU=measured Fluorescence (See Tables 6-10). AveLow=average Fluorescence of no enzyme control (n=16). AveHigh=average Fluorescence of DMSO control (n=16). […] Data is fitted using the Levenburg Marquardt algorithm.

[1] = USP7 activity in USP7 assay A and B (table does not say which assay per compound)
[2] = USP7 assay A and B (table does not say which assay per compound)

T1 sequence (Q93009 208-1102): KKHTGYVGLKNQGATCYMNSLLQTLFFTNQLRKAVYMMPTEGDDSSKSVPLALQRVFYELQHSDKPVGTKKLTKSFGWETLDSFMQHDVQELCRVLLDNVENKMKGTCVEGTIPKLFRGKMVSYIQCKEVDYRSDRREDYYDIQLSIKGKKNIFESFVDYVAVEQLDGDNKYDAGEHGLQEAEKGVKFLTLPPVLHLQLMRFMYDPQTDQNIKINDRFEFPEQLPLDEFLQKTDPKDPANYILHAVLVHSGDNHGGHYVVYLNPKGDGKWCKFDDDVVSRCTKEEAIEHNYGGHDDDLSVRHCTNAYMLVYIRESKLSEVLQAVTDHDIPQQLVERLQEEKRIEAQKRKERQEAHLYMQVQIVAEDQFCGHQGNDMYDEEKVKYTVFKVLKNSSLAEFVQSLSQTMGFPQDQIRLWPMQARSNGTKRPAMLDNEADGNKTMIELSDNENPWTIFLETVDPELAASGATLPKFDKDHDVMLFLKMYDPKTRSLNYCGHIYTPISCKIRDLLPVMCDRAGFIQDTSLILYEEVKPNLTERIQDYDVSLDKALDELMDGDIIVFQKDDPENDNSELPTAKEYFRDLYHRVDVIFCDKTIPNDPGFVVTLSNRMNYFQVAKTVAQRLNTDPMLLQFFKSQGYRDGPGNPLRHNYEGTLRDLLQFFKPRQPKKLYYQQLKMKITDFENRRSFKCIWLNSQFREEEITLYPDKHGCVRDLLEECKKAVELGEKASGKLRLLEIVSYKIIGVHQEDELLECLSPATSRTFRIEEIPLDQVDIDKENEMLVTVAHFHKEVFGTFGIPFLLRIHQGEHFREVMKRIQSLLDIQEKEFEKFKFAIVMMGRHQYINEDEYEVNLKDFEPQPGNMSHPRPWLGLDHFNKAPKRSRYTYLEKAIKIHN

| SMILES | IC50 [1] [nM] | IC50 [2] [nM] |
| --- | --- | --- |
| C[C@@]1(O)CCN(c2ccc(-n3ncc4c(=O)n(CC5(O)CCN(C(=O)C[C@@H](C(F)F)n6cccn6)CC5)cnc43)cc2)C1 [Compound I-836] | 1000 to 10000 | – |
| Cc1ccc(-n2ncc3c(=O)n(CC4(O)CCN(C(=O)c5ccc(OC6CCNCC6)cc5)CC4)cnc32)cc1 [Compound I-1145] | – | 1000 to 10000 |
| O=C(C1CCC(Oc2ncccn2)CC1)N1CCC(O)(Cn2cnc3c(cnn3-c3ccc(F)cc3)c2=O)CC1 (stereo not shown) [Compound I-747] | 1000 to 10000 | – |
| CN1CCN(c2ncc(C(=O)N3CCC(O)(Cn4cnc5c(cnn5-c5ccc(Cl)cc5)c4=O)CC3)o2)CC1 [Compound I-1085] | 1000 to 10000 | – |
| O=C(C[C@@H](C(F)F)n1cccn1)N1CCC(O)(Cn2cnc3c(cnn3-c3ccc(-c4ccccc4)cc3)c2=O)CC1 [Compound I-646] | 1000 to 10000 | – |
| CC1(C(=O)N2CCC(O)(Cn3cnc4c(cnn4-c4ccc(F)cc4)c3=O)CC2)CCC(Oc2ccccn2)CC1 (stereo not shown) [Compound I-746] | 1000 to 10000 | – |
| CC1(C(=O)N2CCC(O)(Cn3cnc4c(cnn4-c4ccc(F)cc4)c3=O)CC2)CCC(Oc2ccccn2)CC1 (stereo not shown) [Compound I-745] | 1000 to 10000 | – |
| O=C(c1ccccc1)N1CCC(O)(Cn2cnc3c(cnn3-c3ccccc3O)c2=O)CC1 [Compound I-18, 5-((1-Benzoyl-4-hydroxypiperidin-4-yl)methyl)-1-(2-hydroxyphenyl)-1,5-dihydro-4H-pyrazolo[3,4-d]pyrimidin-4-one] | – | > 10000 |
| C#CC(=O)NC1CC(C(=O)N2CCC(O)(Cn3cnc4c(cnn4-c4ccc(-c5ccccc5)cc4)c3=O)CC2)C1 (stereo not shown) [Compound I-658] | – | 1000 to 10000 |
| CN(C)C(=O)N1CCC(O)(Cn2cnc3c(cnn3-c3ccc(N4CCNCC4)cc3)c2=O)CC1 [Compound I-967] | – | 1000 to 10000 |
| O=C(C[C@H](C(F)F)n1ccc(F)n1)N1CCC(O)(Cn2cnc3c(cnn3-c3ccc(Cl)cc3)c2=O)CC1 [Compound I-1167] | 1000 to 10000 | – |
| CN1CCN(c2cnn(-c3ccc(-n4ncc5c(=O)n(CC6(O)CCN(C(=O)C7CC7)CC6)cnc54)cc3)c2)CC1 [Compound I-975, 5-[(1-cyclopropanecarbonyl-4-hydroxypiperidin-4-yl)methyl]-1-{4-[4-(4-methylpiperazin-1-yl)-1H-pyrazol-1-yl]phenyl}-1H,4H,5H-pyrazolo[3,4-d]pyrimidin-4-one] | 200 to 1000 | – |
| O=C(c1cnc(N2CCOCC2)o1)N1CCC(O)(Cn2cnc3c(cnn3-c3ccc(F)cc3)c2=O)CC1 [Compound I-555] | 200 to 1000 | – |
| O=C(C1CC(Nc2cccnc2)C1)N1CCC(O)(Cn2cnc3c(cnn3-c3ccc(F)cc3)c2=O)CC1 (stereo not shown) [Compound I-1031] | 200 to 1000 | – |
| O=C(c1cnc(C2CC2)o1)N1CCC(O)(Cn2cnc3c(ccn3-c3ccc(F)cc3)c2=O)CC1 [Compound I-849] | < 200 | – |
| O=C(C1CC1)N1CCC(O)(Cn2cnc3c(ccn3-c3ccc(F)c(CN4CCCCC4)c3)c2=O)CC1 [Compound I-1010] | 1000 to 10000 | – |
| CN1CCN(c2ccc(C(=O)N3CCC(O)(Cn4cnc5c(cnn5-c5ccc(F)cc5)c4=O)CC3)cc2F)CC1 [Compound I-537] | – | 1000 to 10000 |
| Cc1ccc(-n2ncc3c(=O)n(CC4(O)CCN(C(=O)C[C@@H](C)c5ccccc5)CC4)cnc32)cc1 [Compound I-68] | – | < 200 |
| O=C(C[C@H](C(F)F)n1ccc(Cl)n1)N1CCC(O)(Cn2cnc3c(cnn3-c3ccc(F)cc3)c2=O)CC1 [Compound I-731] | < 200 | – |
| Cn1cc(OC2CCC(C(=O)N3CCC(O)(Cn4cnc5c(cnn5-c5ccc(F)cc5)c4=O)CC3)CC2)cn1 (stereo not shown) [Compound I-757] | 200 to 1000 | – |
| Cn1ncc2c(=O)n(CC3(O)CCN(C(=O)c4ccc(S(=O)(=O)Nc5ccccc5)cc4)CC3)cnc21 [Compound I-106] | – | 1000 to 10000 |
| CC1(O)CCN(c2ccc(-n3ncc4c(=O)n(CC5(O)CCN(C(=O)C6CC6)CC5)cnc43)cc2)C1 (stereo not shown) [Compound I-1657] | 1000 to 10000 | – |
| O=C(c1ccc(F)cc1)N1CCC(O)(Cn2cnc3c(cnn3-c3ccc(N4CCCn5nccc54)cc3)c2=O)CC1 [Compound I-1654] | 200 to 1000 | – |
| Cn1ncc2c1CC(C(=O)N1CCC(O)(Cn3cnc4c(cnn4-c4ccc(F)cc4)c3=O)CC1)CC2 (stereo not shown) [Compound I-725] | 1000 to 10000 | – |
| Cc1cnc(-c2ccc(-n3ncc4c(=O)n(CC5(O)CCN(C(=O)c6ccc(F)cc6)CC5)cnc43)cc2)n1C [Compound I-984] | 1000 to 10000 | – |
| C[C@H]1CN(c2cccc(-n3ncc4c(=O)n(CC5(O)CCN(C(=O)C6(C)CC6)CC5)cnc43)c2)CCN1C [Compound I-1646] | < 200 | – |
| O=C(c1cnc(-c2ccccc2)o1)N1CCC(O)(Cn2cnc3c(cnn3-c3ccccc3)c2=O)CC1 [Compound I-252] | – | 200 to 1000 |
| CS(=N)(=O)c1ccc(-n2ncc3c(=O)n(CC4(O)CCN(C(=O)c5ccc(F)cc5)CC4)cnc32)cc1 (single isomer, unassigned) [Compound I-998, 5-((1-(4-fluorobenzoyl)-4-hydroxypiperidin-4-yl)methyl)-1-(4-(S-methylsulfonimidoyl)phenyl)-1,5-dihydro-4H-pyrazolo[3,4-d]pyrimidin-4-one] | – | 1000 to 10000 |

| SMILES | IC50 [1] [nM] | IC50 [2] [nM] |
| --- | --- | --- |
| CC1(C(=O)N2CCC(O)(Cn3cnc4c(cnn4-c4cccc(N5CC(N6CCOCC6)C5)c4)c3=O)CC2)CC1 [Compound I-1637] | 200 to 1000 | – |
| O=C(c1ccc(Oc2ccccc2)cc1)N1CCC(O)(Cn2cnc3c(cnn3C3CC3)c2=O)CC1 [Compound I-152] | – | 1000 to 10000 |
| C[C@@H](CC(=O)N1CCC(O)(Cn2cnc3c(cnn3-c3ccc(F)cc3)c2=O)CC1)n1ncc2c1CCC2 [Compound I-521] | – | > 10000 |
| C[C@H](CC(=O)N1CCC(O)(Cn2cnc3c(cnn3-c3ccc(-c4ccccc4)cc3)c2=O)CC1)n1cccn1 [Compound I-650] | – | 1000 to 10000 |
| Nc1cc(Cl)ccc1C(=O)N1CCC(O)(Cn2cnc3c(cnn3-c3ccccc3)c2=O)CC1 [Compound I-232] | – | 200 to 1000 |
| O=C(C[C@@H](C(F)F)n1cccn1)N1CCC(O)(Cn2cnc3c(cnn3-c3ccc(N4CCCCC4)cc3)c2=O)CC1 [Compound I-822] | 200 to 1000 | – |
| O=C(c1cc2n(n1)CCCO2)N1CCC(O)(Cn2cnc3c(cnn3-c3ccc(Cl)cc3)c2=O)CC1 [Compound I-1569] | – | 1000 to 10000 |
| Cc1onc(Cc2ccccc2)c1C(=O)N1CCC(O)(Cn2cnc3c(cnn3-c3ccc(F)cc3)c2=O)CC1 [Compound I-1164] | < 200 | – |
| O=C(c1cnc(N2CCC(O)CC2)o1)N1CCC(O)(Cn2cnc3c(cnn3-c3ccc(F)cc3)c2=O)CC1 [Compound I-915] | 1000 to 10000 | – |
| CC(C)CN(C)Cc1cccc(-n2ncc3c(=O)n(CC4(O)CCN(C(=O)C5CC5)CC4)cnc32)c1 [Compound I-452] | – | 1000 to 10000 |
| O=C(C1CC1)N1CCC(O)(Cn2cnc3c(cnn3-c3ccc(-c4cncc(C(F)(F)F)c4)cc3)c2=O)CC1 [Compound I-1737] | 1000 to 10000 | – |
| CC(C)N1CCC(c2ccc(-n3ncc4c(=O)n(CC5(O)CCN(C(=O)N(C)C)CC5)cnc43)cc2)CC1 [Compound I-992] | – | 1000 to 10000 |
| Nc1ccc(Cl)cc1C(=O)N1CCC(O)(Cn2cnc3c(cnn3-c3ccccc3)c2=O)CC1 [Compound I-233] | – | 200 to 1000 |
| O=C(C1CC1)N1CCC(O)(Cn2cnc3c(cnn3-c3ccc(N4CCC5(CCOCC5)C4)cc3)c2=O)CC1 [Compound I-1216] | – | 1000 to 10000 |
| O=C(c1ccc(F)c(F)c1)N1CCC(O)(Cn2cnc3c(cnn3-c3ccc(F)cc3)c2=O)CC1 [Compound I-309] | – | 1000 to 10000 |
| O=C(c1cc2n(n1)CCO2)N1CCC(O)(Cn2cnc3c(cnn3-c3ccc(Cl)cc3)c2=O)CC1 [Compound I-1527] | – | 1000 to 10000 |
| COCCN1CCN(c2cccc(-n3ncc4c(=O)n(CC5(O)CCN(C(=O)C6(C)CC6)CC5)cnc43)c2)CC1 [Compound I-1750] | 200 to 1000 | – |
| C[C@@H]1CN(c2ccc(-n3ncc4c(=O)n(CC5(O)CCN(C(=O)C6(C)CC6)CC5)cnc43)cc2)C[C@H](C)N1C [Compound I-1638] | < 200 | – |
| Cn1ncc2c(=O)n(CC3(O)CCN(C(=O)CC(C(F)F)n4ccc(F)n4)CC3)cnc21 (single isomer, unassigned) [Compound I-1697] | < 200 | – |
| O=C(C1CCC(Oc2ccccn2)CC1)N1CCC(O)(Cn2cnc3c(cnn3-c3ccc(CO)cc3)c2=O)CC1 (stereo not shown) [Compound I-853] | 200 to 1000 | – |
| CN1CCCC(CNc2ccc(-n3ncc4c(=O)n(CC5(O)CCN(C(=O)C6CC6)CC5)cnc43)cc2)C1 (stereo not shown) [Compound I-1151] | – | 200 to 1000 |
| O=C(C1CCC1)N1CCC(O)(Cn2cnc3c(cnn3-c3ccccc3)c2=O)CC1 [Compound I-194] | – | 1000 to 10000 |
| CC1(C(=O)N2CCC(O)(Cn3cnc4c(cnn4-c4ccc(-c5cnn(C6CC6)c5)cc4)c3=O)CC2)CC1 [Compound I-1723] | 200 to 1000 | – |
| NC1(c2cccc(-c3ccc(-n4ncc5c(=O)n(CC6(O)CCN(C(=O)C7CC7)CC6)cnc54)cc3)c2)COC1 [Compound I-691] | – | 1000 to 10000 |
| O=C(C[C@H](C(F)F)n1ccc(F)n1)N1CCC(O)(Cn2cnc3c(ccn3-c3ccc(F)cc3)c2=O)CC1 [Compound I-1125] | 200 to 1000 | – |
| Cn1ccc(NC2CCC(C(=O)N3CCC(O)(Cn4cnc5c(cnn5-c5ccc(F)cc5)c4=O)CC3)CC2)n1 (stereo not shown) [Compound I-765] | 1000 to 10000 | – |
| CN1CCN(C(=O)N2CCC(O)(Cn3cnc4c(cnn4-c4ccc(OC5CCC(F)(F)CC5)cc4)c3=O)CC2)CC1 [Compound I-697] | > 10000 | – |
